Data from article PMC8607231, “Generation of KS-133 as a Novel Bicyclic Peptide with a Potent and Selective VIPR2 Antagonist Activity that Counteracts Cognitive Decline in a Mouse Model of Psychiatric Disorders” (Frontiers in Pharmacology, 2021).
Where a SMILES comes first, the peptide text is derived from it. Bridges are numbered along the chain shown (N, C = ends).

How the values were obtained:
[1] = Peptide stability in rat plasma (RP-HPLC); type: in vitro ADME
Protocol: Each peptide (10 mM, 1 μl) was incubated with rat plasma (20 μl) prepared in-house. Immediately after mixing with plasma and after 24 h of incubation at 37°C, 80% acetonitrile (200 μl) was added to extract VIpep-3 and acetonitrile (200 μl) was added to extract KS-132, KS-133(monocyclic), and KS-133. The mixture was stored for 10 min on ice and then centrifuged at 20,000 × g for 10 min at 4°C. The supernatant was recovered and directly applied to RP-HPLC to determine the remaining amount of unmodified peptides in the sample.
The stability of peptides was evaluated in rat plasma. A peptide was incubated in rat plasma at 37°C for 0 and 24 h and the remaining amount of peptide was determined by RP-HPLC. By comparison with the peak area of the peptide, the remaining amount of the peptide after plasma incubation was estimated. […] KS-133(monocyclic) may form a pseudo bicyclic structure by ionic bond interaction between side chains of Lys and Asp.

[2] = tested on: mouse model of psychiatric disorders on the basis of early postnatal activation of VIPR2; assay: Novel object recognition test in mouse model of early postnatal activation of VIPR2; type: in vivo; details: KS-133 1 nmol/g s.c. simultaneously with Ro 25-1553 0.07 nmol/g, P1-14
Protocol: For behavioral experiments, all litters were randomly divided into Ro 25-1553- and PBS-treated groups. From P1 to P14, mice were injected s.c. once daily with Ro 25-1553 at a dose of 0.07 nmol/g ([Ago et al., 2015]). Mice treated with PBS from P1 to P14 were used as the control. KS-133 or the vehicle was simultaneously injected with Ro 25-1553 or PBS. Animals were weaned at P21 and divided by gender at P28. We used male mice exclusively to minimize any potential variability due to sex-specific effects on behavioral performance. All groups were derived from at least four different litters to preclude possible differences in individual maternal behaviors as a mitigating factor in any subsequent long-lasting changes induced in the offspring. […]
The novel object recognition test was carried out in accordance with previous reports ([Takuma et al., 2014]; [Hara et al., 2016]). […] The exploration time for each object in the retention session was measured with a stopwatch. […]
FIGURE 5 Effects of early postnatal treatment with Ro 25-1553 and KS-133 on recognition memory in the novel object recognition test. […] (B) Discrimination index (%) was calculated as the difference between novel and familiar object exploration times divided by the total time spent exploring the two objects. Results are expressed as the mean ± S.E.M. of 15–20 mice per group. **p < 0.01.

[3] = rat plasma, immediately after mixing

Stability in rat plasma ([1]; 37°C, 24 h): highly stable for at least up to 24 h
RP-HPLC peak area, Input (NT) ([1]; no plasma treatment): 161695
RP-HPLC peak area, incubation time 24 h ([1]; rat plasma, 37°C, 24 h): 163537
remaining at 24 h, 0.476 mM ([1]; rat plasma, 37°C, 24 h, read-out: Residual rate, incubation time 24 h): 99%
RP-HPLC peak area, immediately after mixing [1, 3]: 165254
Residual rate, immediately after mixing [1, 3]: 100%
SMILES: CC[C@H](C)[C@H](NC(=O)[C@H](CC(C)C)NC(=O)[C@@H]1CC(=O)NCCCC[C@@H]2NC(=O)[C@@H]3CCCN3C(=O)[C@H](CC(C)C)NC(=O)[C@H](Cc3ccc(O)cc3)NC(=O)[C@@H]3CCCN3C(=O)[C@@H]3CCCN3C(=O)[C@@H](NC(C)=O)CSSC[C@H](NC(=O)[C@H](CC(C)C)NC(=O)[C@H](Cc3ccc(O)cc3)NC2=O)C(=O)N1)C(N)=O [KS-133, Ac-c[Cys-Pro-Pro-Tyr-Leu-Pro-c(Lys-Tyr-Leu-Cys]-Asp)-Leu-Ile-NH2] (Ac-CPPYLPKYLCDLI-NH2; disulfide 1-10; lactam 7-11)
Effect on Ro 25-1553-induced recognition memory deficit, novel object recognition test [2]: attenuated the decreases in the difference of time spent exploring each object and cognitive dysfunction
